Source: patent US8404694B2, “Aurora kinase modulators and method of use” (Amgen Inc., priority 2008, dated 2013)

Legend:
[1] = target: T1, AuroraA-TPX2 (Homo sapiens, UniProt O14965); test: AuroraA-TPX2 Homogeneous Time Resolved Fluorescent (HTRF) kinase assay; type: biochemical; conditions: ATP about 1 μM, biotinylated PLK peptide, read-out: AurA_IC50—IP (Avg)
T1 construct: 20 μL of AuroraA-TPX2 KD GST; GST
T1 sequence (O14965 133-383 limits assumed): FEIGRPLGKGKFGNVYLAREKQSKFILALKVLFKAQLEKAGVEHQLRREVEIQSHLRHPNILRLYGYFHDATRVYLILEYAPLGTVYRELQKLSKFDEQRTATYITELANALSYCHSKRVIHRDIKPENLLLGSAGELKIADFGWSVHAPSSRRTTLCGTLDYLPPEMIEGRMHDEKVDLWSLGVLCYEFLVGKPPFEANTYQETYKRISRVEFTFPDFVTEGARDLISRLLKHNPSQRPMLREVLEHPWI
T1 sequence (Q9ULW0 1-747 partner): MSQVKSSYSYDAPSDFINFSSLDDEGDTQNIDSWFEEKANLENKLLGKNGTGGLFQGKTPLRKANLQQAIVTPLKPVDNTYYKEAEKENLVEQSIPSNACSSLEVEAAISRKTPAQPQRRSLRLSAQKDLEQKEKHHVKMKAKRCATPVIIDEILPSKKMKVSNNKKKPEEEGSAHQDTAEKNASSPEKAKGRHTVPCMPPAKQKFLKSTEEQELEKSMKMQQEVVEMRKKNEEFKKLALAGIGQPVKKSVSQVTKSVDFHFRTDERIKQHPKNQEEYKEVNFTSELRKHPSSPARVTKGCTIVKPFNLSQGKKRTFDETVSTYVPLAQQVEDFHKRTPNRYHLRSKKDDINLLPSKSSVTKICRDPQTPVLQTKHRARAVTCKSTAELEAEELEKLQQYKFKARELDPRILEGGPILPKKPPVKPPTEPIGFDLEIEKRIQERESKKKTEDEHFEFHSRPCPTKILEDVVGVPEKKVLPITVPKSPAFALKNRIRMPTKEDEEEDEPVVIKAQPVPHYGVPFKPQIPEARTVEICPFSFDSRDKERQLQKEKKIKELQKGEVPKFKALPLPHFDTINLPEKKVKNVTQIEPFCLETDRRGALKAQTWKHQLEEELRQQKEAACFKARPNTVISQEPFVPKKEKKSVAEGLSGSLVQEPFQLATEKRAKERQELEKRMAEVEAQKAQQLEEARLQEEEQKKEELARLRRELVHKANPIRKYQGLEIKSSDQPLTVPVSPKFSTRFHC
Experimental: AuroraA-TPX2-Homogeneous Time Resolved Fluorescent (HTRF) Kinase Assay:
The Aurora-A HTRF assay begins with Aurora-A in the presence of ATP phosphorylating the biotinylated peptide PLK. The reaction incubates for about 120 min. Detection reagents are added to quench the reaction. These agents stop the reaction by diluting out the enzyme and chelating the metals due to the presence of EDTA. After addition, the assay is incubated overnight to allow the detection reagents to equilibrate.
The AuroraA HTRF assay comprises 1 μL of compound in 100% DMSO, 20 μL of ATP and biotinylated PLK, and 20 μL of AuroraA-TPX2 KD GST for a final volume of about 41 μL. The final concentration of PLK is about 1 μM. The final concentration of ATP is about 1 μM (Km(app)=1 μM+/−0.1) and the final concentration of AuroraA is about 5 nM. Buffer conditions are as follows: 60 mM HEPES pH 7.5, 25 mM NaCl, 10 mM MgCl, 2 mM DTT, 0.05% BSA.
(§1) The assay is quenched and stopped with 160 μL of detection reagent. Detection reagents are as follows: Buffer made of 50 mM Tris, pH 7.5, 100 mM NaCl, 3 mM EDTA, 0.05% BSA, 0.1% Tween20. Added to this buffer prior to reading is Steptavidin allophycocyanin (SA-APC) at a final conc in the assay of 0.0005 mg/mL, and europilated anti-phosphoPLK Ab (Eu-anti-PLK) at a final conc of 0.02 nM.
(§2) The assay plate is read in either a Discovery or a RubyStar. The eu-anti-PLK is excited at 320 nm and emits at 615 nm to excite the SA-APC which in turn emits at 655 nm. The ratio of SA-APC at 655 nm (excited due to close proximity to the Eu-anti-PLK because of phosphorylation of the peptide) to free Eu-anti-PLK at 615 nm will give substrate phosphorylation.
(§3) Many of the Examples described herein were tested, and found to be active compounds. Table I includes related biological data, which may be interpreted using the activity gauge below: […]

[2] = target: T2, AuroraB (Homo sapiens, UniProt Q96GD4); test: AuroraB Homogeneous Time Resolved Fluorescent (HTRF) kinase assay; type: biochemical; conditions: ATP 23 μM, biotinylated Histone H3 peptide, read-out: AurB_IC50—IP (Avg)
T2 construct: 20 μL of AuroraB FL His; His
T2 sequence (Q96GD4 whole entry): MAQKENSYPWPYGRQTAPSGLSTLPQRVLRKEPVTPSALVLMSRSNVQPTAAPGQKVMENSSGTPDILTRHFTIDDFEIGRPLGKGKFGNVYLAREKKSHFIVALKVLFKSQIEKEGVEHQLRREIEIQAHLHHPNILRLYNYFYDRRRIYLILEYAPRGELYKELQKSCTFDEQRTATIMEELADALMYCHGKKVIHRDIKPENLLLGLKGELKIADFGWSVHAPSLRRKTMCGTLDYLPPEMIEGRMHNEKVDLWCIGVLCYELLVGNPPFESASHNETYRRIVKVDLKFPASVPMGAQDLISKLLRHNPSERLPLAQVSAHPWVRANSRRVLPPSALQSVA
Experimental: AuroraB-Homogeneous Time Resolved Fluorescent (HTRF) Kinase Assay:
The AuroraB HTRF assay begins with AuroraB in the presence of ATP phosphorylating the biotinylated peptide Histone H3. The reaction incubates for about 90 min. the reaction is quenched by addition of detection reagents, which stop the reaction by diluting out the enzyme and chelating the metals due to the presence of EDTA. After addition, the assay is incubated for about 60 min to allow detection reagents to equilibrate.
The AuroraB HTRF assay comprises 1 μL of compound in 100% DMSO, 20 μL of ATP and biotinylated Histone H3, and 20 μL of AuroraB FL His for a final volume of 41 μL. The final concentration of Histone H3 is 0.1 μM. The final concentration of ATP is 23 μM (Km(app)=23 μM+/−2.6) and the final concentration of AuroraB is 400 pM. Buffer conditions are as follows: 50 mM HEPES pH 7.5, 5 mM NaCl, 0.5 mM MgCl, 0.5 mM MnCl, 2 mM DTT, 0.05% BSA.
as §1, with “0.001” for “0.0005”, “anti-phosphoHistoneH3” for “anti-phosphoPLK”, “(Eu-anti-His H3)” for “(Eu-anti-PLK)”, “0.064” for “0.02”
as §2, with “eu-anti-His H3” for “eu-anti-PLK”, “Eu-anti-His H3” for “Eu-anti-PLK”
as §3

[3] = system: HeLa cells; test: HeLa cell 24 hr ploidy assay; type: cell-based; conditions: Homo sapiens, 24 hrs treatment, DNA content (ploidy), read-out: 24 h_4N Ploidy EC50—IP (Avg)
Experimental: HeLa Cell 24 hr Ploidy Assay Protocol
The purpose of this assay is to evaluate the ability of selected individual compounds to induce Deoxyribonucleic acid (DNA) content (ploidy) in cells thought failed cell division. Cell cycle analysis is a rapid and efficient way to evaluate the status of DNA content (ploidy) of a given cell. HeLa cells (1×10^4 HeLa cells/well) in 100 ul of media (MEM+10% FBS) were plated in 96-well plates (Packard View) and cultured for 24 hrs at 37° C. maintained in a 5% CO2 atmosphere. The following day, cells were treated for 24 hrs with inhibitor compounds (10 pt. Dose ranging from 0.0024-1.25 umol/L). The compounds were serially diluted in DMSO (0.25% final concentration). The cells were fixed (3.7% Formaldehyde and 1% glutaraldehyde) and permeabilized (1×PBS with 1% BSA and 0.2% Triton X-100) in preparation for nuclear staining. The well plates were stained for 45 minutes at RT in the dark using Hoechest 33342 nuclear stain at 0.5 ug·ml (Stock of 10 mg/ml, Invitrogen, CA, Cat # H3570). The nuclear stain was removed by aspiration and the cells were washed with wash buffer. A Cellomics Array Scan Vti plate reader was used to acquire the DNA ploidy data of the cells using Cell Cycle bioapplication. Numbers for each of “valid cell count/well”, “% of 4N cells” and “% of >4Ncells” were calculated with the assistance of an Activity Base 5.1ca software and dose curves were generated using an XLFit software. With XLFit, final EC50 IP and EC50 transit values, as well as the Max and Min, were calculated for each curve. Many of the Examples described herein were tested, and fund to be active compounds. Table I includes related biological data in the 24 h cell-ploidy content assay, which may be interpreted using the activity gauge below: […]

Row | IC50 [1] | IC50 [2] | EC50 [3] | Structure (SMILES)
1 | < 100 nM | < 100 nM | < 100 nM | Cc1ccc(-c2nnc(Nc3ccc(Sc4ccnc5ccnn45)cc3)c3ccccc23)nc1 [Example 21, 4-(5-methyl-2-pyridinyl)-N-(4-(pyrazolo[1,5-a]pyrimidin-7-ylthio)phenyl)-1-phthalazinamine]
2 | < 100 nM | 100 to 500 nM | < 100 nM | Cc1csc(-c2nnc(Nc3ccc(Sc4ccnc5cc(C6CC6)nn45)cc3)c3ccccc23)c1 [Example 23, N-(4-((2-cyclopropylpyrazolo[1,5-a]pyrimidin-7-yl)thio)phenyl)-4-(4-methyl-2-thienyl)-1-phthalazinamine]
3 | 100 to 500 nM | < 100 nM | 100 to 500 nM | Cc1csc(-c2nnc(Nc3ccc(Oc4ncnn5cccc45)cc3)c3ccccc23)c1 [Example 24, 4-(4-methyl-2-thienyl)-N-(4-(pyrrolo[2,1-f][1,2,4]triazin-4-yloxy)phenyl)-1-phthalazinamine]
4 | > 2500 nM | < 100 nM | < 100 nM | Clc1ccc(-c2nnc(Nc3ccc(Sc4ccnc5cc(C6CC6)nn45)cc3)c3ccccc23)cc1 [Example 1, 4-(4-Chlorophenyl)-N-(4-(2-cyclopropylpyrazolo[1,5-a]pyrimidin-7-ylthio)phenyl)phthalazin-1-amine]
